# In patent US8101626B2, “GPR119 receptor agonists in methods of increasing bone mass and of treating osteoporosis and other conditions characterized by low bone mass, and combination therapy relating thereto” (Arena Pharmaceuticals, Inc., priority 2006, dated 2012):
# Legend:
# blood GIP level = experiment: Effect of oral GPR119 agonist on plasma GIP level (rodent total GIP ELISA) in wild-type mice, with oral glucose bolus; type: in vivo, C57blk/6 male mice; conditions: 20 mg/kg per orally vs vehicle PET, FIG. 1A
# Procedure: A. C57blk/6 male mice were fasted for 18 hours, and randomly assigned into fourteen groups with n=6 for each group. Mice were administered per orally with vehicle (PET; 80% PEG400, 10% ethanol, 10% Tween80) or with a GPR119 agonist in accordance with the present invention (Compound 1Z; (2-Fluoro-4-methanesulfonyl-phenyl)-{6-[4-(3-isopropyl-[1,2,4]oxadiazol-5-yl)-piperidin-1-yl]-5-nitro-pyrimidin-4-yl}-amine) at 20 mg/kg, as indicated in FIG. 1A. Thirty minutes after treatment, a glucose bolus at 3 g/kg were delivered per orally, and plasma were collected at 0 (no glucose bolus), 2, 5, 10, 20, 40 and 60 minutes after glucose bolus. Plasma GIP levels were determined by using a rodent GIP ELISA kit purchased from Linco Research Laboratory [Rat/Mouse Gastric Inhibitory Polypeptide (Total) ELISA Catalog #EZRMGIP-55K], following instructions provided by the supplier. […]
# B. C57blk/6 male mice were fasted for 18 hours, and randomly assigned into fourteen groups with n=6 for each group. […] Plasma GIP levels were determined by using a rodent GIP ELISA kit purchased from Linco Research Laboratory [Rat/Mouse Gastric Inhibitory Polypeptide (Total) ELISA Catalog #EZRMGIP-55K], following instructions provided by the supplier. […] Mean values of GIP concentration were calculated based on results with six mice in each group and shown as mean±SEM. […]
# GPR119 receptor [1] = target: T1, GPR119 receptor (Mus musculus, UniProt Q7TQP3); experiment: Effect of oral GPR119 agonist on plasma GIP level in GPR119-deficient (knockout) mice compared to wild-type littermates; type: in vivo; conditions: 20 mg/kg per orally; wild-type littermates; time 0 and 5 min after glucose bolus 3 g/kg; FIG. 2A
# T1 construct: from tissue; host or cells: whole animal: wild-type male mice dosed orally, compared with GPR119-deficient littermates
# T1 sequence (Q7TQP3 1-335): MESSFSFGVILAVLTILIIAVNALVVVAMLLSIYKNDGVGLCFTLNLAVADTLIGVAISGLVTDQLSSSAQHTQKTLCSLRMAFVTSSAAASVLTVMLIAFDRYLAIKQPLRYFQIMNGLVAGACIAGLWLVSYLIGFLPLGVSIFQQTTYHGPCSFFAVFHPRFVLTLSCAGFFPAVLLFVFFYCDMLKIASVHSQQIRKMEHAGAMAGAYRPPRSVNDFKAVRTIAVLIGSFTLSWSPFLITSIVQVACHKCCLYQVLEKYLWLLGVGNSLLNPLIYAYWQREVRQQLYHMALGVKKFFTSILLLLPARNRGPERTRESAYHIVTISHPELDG
# Procedure: (§1) A. GPR119-deficient male mice and wild-type littermates were fasted for 18 hours. Mice were administered per orally with vehicle (PET; 80% PEG400, 10% ethanol, 10% Tween80) or with a GPR119 agonist in accordance with the present invention (Compound 1Z; (2-Fluoro-4-methanesulfonyl-phenyl)-{6-[4-(3-isopropyl-[1,2,4]oxadiazol-5-yl)-piperidin-1-yl]-5-nitro-pyrimidin-4-yl}-amine) at 20 mg/kg, as indicated (n=5). Thirty minutes after treatment, blood (100 microliter) was collected via retro orbital vein of the eye (time 0) followed by a glucose bolus at 3 g/kg (per orally). Five minutes after delivering glucose, another blood sample (100 microliter) was collected (time 5 minutes). Plasma were collected after centrifugation and GIP levels were determined by using a rodent GIP ELISA kit purchased from Linco Research Laboratory [Rat/Mouse Gastric Inhibitory Polypeptide (Total) ELISA Catalog #EZRMGIP-55K], following instructions provided by the supplier. […]
# (§2) B. GPR119-deficient male mice and wild-type littermates were fasted for 18 hours. […] Plasma were collected after centrifugation and GIP levels were determined by using a rodent GIP ELISA kit purchased from Linco Research Laboratory [Rat/Mouse Gastric Inhibitory Polypeptide (Total) ELISA Catalog #EZRMGIP-55K], following instructions provided by the supplier. […]
# GPR119 receptor [2] = experiment: as above; type: in vivo; conditions: 20 mg/kg per orally vs vehicle PET; blood at time 0 and 5 min after glucose bolus 3 g/kg; FIG. 2A
# Procedure: as §1, §2
smiles,measurement,setting,value
"CC(C)c1noc(C2CCN(c3ncnc(Nc4ccc(S(C)(=O)=O)cc4F)c3[N+](=O)[O-])CC2)n1 [Compound 1Z, (2-Fluoro-4-methanesulfonyl-phenyl)-{6-[4-(3-isopropyl-[1,2,4]oxadiazol-5-yl)-piperidin-1-yl]-5-nitro-pyrimidin-4-yl}-amine]",level of GIP in the blood of the mice (glucose-dependent and glucose-independent),"blood GIP level; glucose bolus 3 g/kg 30 min after treatment, plasma at 0 (no glucose bolus), 2, 5, 10, 20, 40, 60 min",increased both a glucose-dependent and a glucose-independent level of GIP
same,plasma total GIP,"blood GIP level; glucose bolus 3 g/kg, time course 0-60 min",stimulated plasma total GIP
same,plasma total GIP in wild-type mice,GPR119 receptor [1],stimulated plasma total GIP in the wild-type mice
same,"glucose-independent and glucose-dependent level of GIP in the blood, GPR119-deficient vs wild-type mice",GPR119 receptor [2],functional GPR119 receptor was necessary for the administered GPR119 agonist to increase a glucose-independent level and a glucose-dependent level of GIP
